For one data set, the system named is DU145 (prostate cancer). Description: Effect on tumor cell lines, viable cell count by trypan blue exclusion (Latham et al.): DU145. The data set is classed as cell-based. The following applies: Homo sapiens, DU-145, 96 h, DU145 prostate cancer cells, viable cell count 96 hours after treatment. The protocol: The effect of the compounds of the invention on tumor cells was determined by the assay described by Latham et al., Oncogene 12:827-837 (1996). Tumor cells DU145 (prostate cancer), K562 (chronic myelogenous leukaemia), BT20 (breast carcinoma), H157 (non small cell lung carcinoma), or DLD1 (colon carcinoma) were plated in 6-well dishes at a cell density of 1.0×10^5 cells per 35-mm^2 well. […] The total number of viable cells was determined 96 hours later by trypsinizing the wells and counting the number of viable cells, as determined by trypan blue exclusion, using a hemacytometer. Normal HFL cells were treated with the same compounds under the same conditions of concentration and time.

`CCOc1ccc(/C=C(\C(N)=O)S(=O)(=O)Cc2ccc(F)cc2)cc1OC` [Example 164, (E)-2-[(4-fluorophenyl)methanesulfonyl]-3-(4-ethoxy-3-methoxyphenyl)acrylamide] showed a melting point of 197 to 202 °C.

The compound `NC(=O)/C(=C\c1ccc(F)cc1Cl)S(=O)(=O)Cc1ccc(Cl)cc1` [Example 166] registered a melting point of 194 to 199 °C.

As for `COc1ccc(CS(=O)(=O)/C(C#N)=C/c2c(F)c(F)c(F)c(F)c2F)cc1OC` [Example 32], the IC50 in the data set with DU145 (prostate cancer) turned out to be 10 µM.

As to `COc1ccc(CS(=O)(=O)/C(C#N)=C/c2ccc3oc(=O)[nH]c3c2)cc1` [Example 22], the melting point lay in the range of 210 to 212 °C. Also, it took 10 µM to reach half-maximal inhibition in the data set with DU145 (prostate cancer) (IC50).

Regarding `COc1ccc(CS(=O)(=O)/C(C#N)=C/c2ccc3[nH]c(=O)oc3c2)cc1OC` [Example 29], the midpoint of inhibition with DU145 (prostate cancer), the IC50, lay at 100 µM.

`COc1ccc(CS(=O)(=O)/C(C#N)=C/c2ccc(F)c([N+](=O)[O-])c2)cc1` [Example 3] came in with a concentration for half-maximal inhibition (IC50) in the data set with DU145 (prostate cancer) of 50 µM.

The compound `COc1cc(OC)c(/C=C(\[N+](=O)[O-])S(=O)(=O)c2ccc(C)cc2)c(OC)c1` [Example 185] showed a melting point of 192 to 194 °C. In addition, the IC50 in the data set with DU145 (prostate cancer) came out at 50 µM.

`COc1ccc(CS(=O)(=O)/C(C#N)=C/c2ccc(F)cc2Cl)cc1` [Example 15] showed a melting point of 138 to 140 °C. It took 25 µM to reach half-maximal inhibition with DU145 (prostate cancer) (IC50).

Consider `COc1ccc(CS(=O)(=O)/C(C#N)=C/c2ccc3oc(=O)[nH]c3c2)cc1OC` [Example 30], for which the melting point lay within 174 to 176 °C. The IC50 in the data set with DU145 (prostate cancer) amounted to 100 µM.

Consider `COc1ccc(CS(=O)(=O)/C(C#N)=C/c2c(OC)cc(OC)cc2OC)cc1` [Example 1], for which the melting point fell in the range of 178 to 180 °C. The compound also gave an IC50 with DU145 (prostate cancer) of 25 µM.

As for `COc1ccc(S(=O)(=O)/C(=C/c2c(OC)cc(OC)cc2OC)C(N)=O)cc1` [Example 182], the melting point is 172 to 175 °C.

In turn, `NC(=O)/C(=C\c1ccc(Cl)cc1Cl)S(=O)(=O)Cc1ccc(Cl)cc1` [Example 165] came in with a melting point of 206 to 210 °C.

`COc1ccc(CS(=O)(=O)/C(C#N)=C/c2ccc(C#N)cc2F)cc1` [Example 17] registered a melting point of 112 to 114 °C.

With `COc1cc(OC)c(/C=C(\C#N)S(=O)(=O)Cc2ccc(OC)c([N+](=O)[O-])c2)c(OC)c1` [Example 34], the melting point was 184 to 186 °C.

In turn, `N#C/C(=C\c1ccc(O)c(O)c1)S(=O)(=O)Cc1ccc(Cl)cc1` [Example 24] showed a melting point of 178 to 180 °C. In the data set on DU145 (prostate cancer), this compound had an IC50 of 10 µM.

As for `COc1cc(OC)c(/C=C(\[N+](=O)[O-])S(=O)(=O)c2ccc(Br)cc2)c(OC)c1` [Example 186], the melting point lay in the range of 184 to 186 °C. Also, the IC50 in the data set with DU145 (prostate cancer) turned out to be 25 µM.

As to `COc1ccc(S(=O)(=O)/C(=C/c2ccc(F)cc2)C(N)=O)cc1` [Example 181], the melting point lay within 154 to 156 °C.

For `N#C/C(=C\c1ccc([N+](=O)[O-])cc1)S(=O)(=O)Cc1ccc(Br)cc1` [Example 31], the melting point lay within 138 to 142 °C.

As to `COc1ccc(CS(=O)(=O)/C(C#N)=C/c2ccc(OC)c(OC)c2)cc1` [Example 26], the melting point lay in the range of 156 to 158 °C.

In the case of `COc1ccc(CS(=O)(=O)/C(C#N)=C/c2c(OC)cccc2OC)cc1` [Example 8], the melting point lay within 108 to 110 °C. Moreover, in the data set on DU145 (prostate cancer), the IC50 worked out at 75 µM.

`Cc1cc(C)cc(/C=C(\C(N)=O)S(=O)(=O)Cc2ccc(Cl)cc2)c1` [Example 163] had a melting point of 172 to 176 °C.

The compound `COc1ccc(CS(=O)(=O)/C(C#N)=C/c2ccc([N+](=O)[O-])cc2)cc1` [Example 10] had a melting point of 174 to 176 °C.

As to `COc1ccc(NS(=O)(=O)/C(C#N)=C/c2ccc(C)c(C)c2)cc1` [Example 203], the melting point was 152 to 154 °C. The IC50 with DU145 (prostate cancer) is above 100 µM.

The compound `COc1ccc(CS(=O)(=O)/C(C#N)=C/c2ccoc2)cc1` [Example 12] registered a melting point of 150 to 153 °C.

In turn, `COc1ccc(NS(=O)(=O)/C(C#N)=C/c2cc(OC)cc(OC)c2)cc1` [Example 201] displayed a melting point of 167 to 168 °C. For the same compound, the IC50 in the data set with DU145 (prostate cancer) was above 100 µM.

For the compound `COc1ccc(CS(=O)(=O)/C(C#N)=C/c2ccsc2)cc1` [Example 13], the melting point was 142 to 144 °C.

Take `CCOc1ccc(/C=C(\C(N)=O)S(=O)(=O)Cc2ccc([N+](=O)[O-])cc2)cc1OC` [Example 159, (E)-2-[(4-nitrophenyl)methanesulfonyl]-3-(4-ethoxy-3-methoxyphenyl)acrylamide]: the melting point is 235 to 240 °C.

For `COc1ccc(/C=C(\C(N)=O)S(=O)(=O)Cc2ccc(Cl)cc2Cl)cc1O` [Example 154, (E)-2-[(2,4-dichlorophenyl)methanesulfonyl]-3-(3-hydroxy-4-methoxyphenyl)acrylamide], the melting point fell in the range of 185 to 189 °C.

In the case of `NC(=O)/C(=C\c1cccc(Cl)c1Cl)S(=O)(=O)Cc1ccc(F)cc1` [Example 155], the melting point fell in the range of 188 to 193 °C.

Take `CCOc1ccc(/C=C(\C(N)=O)S(=O)(=O)Cc2ccc(Cl)cc2)cc1OC` [Example 158, (E)-2-[(4-chlorophenyl)methanesulfonyl]-3-(4-ethoxy-3-methoxyphenyl)acrylamide]: the melting point was in the range of 195 to 197 °C.

The compound `COc1cc(OC)c(/C=C(\[N+](=O)[O-])S(=O)(=O)c2ccccc2)c(OC)c1` [Example 187] returned a melting point of 176 to 180 °C.

`NC(=O)/C(=C\c1cccc(Cl)c1Cl)S(=O)(=O)Cc1ccc([N+](=O)[O-])cc1` [Example 169] came in with a melting point of 200 to 202 °C.

In the case of `NC(=O)/C(=C\c1cc(F)c(F)cc1F)S(=O)(=O)Cc1ccc(F)cc1` [Example 162], the melting point lay within 168 to 170 °C.

`COc1cc(OC)c(/C=C(\C(N)=O)S(=O)(=O)c2ccccc2)c(OC)c1` [Example 178] displayed a melting point of 164 to 167 °C.

Compound `COc1ccc(CS(=O)(=O)/C(C#N)=C/c2ccc3[nH]c(=O)oc3c2)cc1` [Example 23, (E)-2-[(4-methoxyphenyl)methanesulfonyl]-3-(2-benzoxazolon-6-yl)acrylonitrile] displayed a melting point of 208 to 210 °C. The compound also gave an IC50 with DU145 (prostate cancer) of 50 µM.

Compound `CCOc1ccc(/C=C(\C(N)=O)S(=O)(=O)Cc2ccc(Cl)cc2Cl)cc1OC` [Example 168, (E)-2-[(2,4-dichlorophenyl)methanesulfonyl]-3-(4-ethoxy-3-methoxyphenyl)acrylamide] gave a melting point of 245 to 247 °C.

On to `COc1ccc(CS(=O)(=O)/C(C#N)=C/c2ccc(F)cc2)cc1` [Example 7], for which the melting point lay in the range of 171 to 173 °C. In addition, in the data set with DU145 (prostate cancer), the IC50 stood at 100 µM.

`N#C/C(=C\c1ccccc1OC(F)F)S(=O)(=O)Cc1ccc(Br)cc1` [Example 14] came in with a melting point of 204 to 206 °C.

For `COc1ccc(NS(=O)(=O)/C(C#N)=C/c2c(OC)cccc2OC)cc1` [Example 193], the melting point lay within 154 to 156 °C.

`N#C/C(=C\c1ccc(F)cc1F)S(=O)(=O)Cc1ccc(Br)cc1` [Example 4] came in with a melting point of 146 to 148 °C.

As to `COc1ccc(CS(=O)(=O)/C(C#N)=C/c2ccc(F)c(N)c2)cc1` [Example 6], the melting point lay within 146 to 148 °C.

Consider `CC(=O)c1ccc(/C=C(\C(N)=O)S(=O)(=O)Cc2ccc(Cl)cc2Cl)cc1` [Example 167], for which the melting point was 207 to 210 °C.

`COc1ccc(CS(=O)(=O)/C(C#N)=C/c2ccccc2OC)cc1` [Example 9] displayed a melting point of 143 to 145 °C.

Compound `Cc1ccc(C)c(/C=C(\C(N)=O)S(=O)(=O)Cc2ccc(Cl)cc2)c1` [Example 157] came in with a melting point of 79 to 82 °C.

The compound `COc1ccc(CS(=O)(=O)/C(C#N)=C/c2ccc(N)cc2)cc1` [Example 5] displayed a melting point of 140 to 142 °C. In the data set on DU145 (prostate cancer), this compound displayed a 50% inhibitory concentration (IC50) of 75 µM.

For the compound `COc1ccc(CS(=O)(=O)/C(=C/c2c(OC)cc(OC)cc2OC)C(N)=O)cc1` [Example 171], the melting point was 168 to 171 °C.

`NC(=O)/C(=C\c1ccc(Br)cc1)S(=O)(=O)Cc1ccc(Cl)cc1Cl` [Example 153] registered a melting point of 195 to 196 °C.

With `COc1ccc(CS(=O)(=O)/C(C#N)=C/c2ccc(O)c(O)c2)cc1OC` [Example 28], the melting point was 196 to 198 °C.

`COc1ccc(CS(=O)(=O)/C(C#N)=C/c2ccc3c(c2)OCO3)cc1` [Example 27, (E)-2-[(4-methoxyphenyl)methanesulfonyl]-3-(1,3-benzodioxole-5-yl)acrylonitrile] had a melting point of 186 to 188 °C. In the data set on DU145 (prostate cancer), this compound returned an IC50 of 100 µM.

Take `NC(=O)/C(=C\c1ccc(Br)cc1)S(=O)(=O)Cc1ccc(F)cc1` [Example 161]: the melting point was 199 to 200 °C.

`COc1cc(OC)c(/C=C(\C(N)=O)S(=O)(=O)Cc2ccc(Cl)cc2Cl)c(OC)c1` [Example 152] gave a melting point of 201 to 204 °C.

As to `COc1ccc(CS(=O)(=O)/C(C#N)=C/c2ccc(O)c(O)c2)cc1` [Example 25], the melting point lay in the range of 144 to 146 °C. The compound further showed an IC50 with DU145 (prostate cancer) of 10 µM.

Take `Cc1ccc(/C=C(\C(N)=O)S(=O)(=O)Cc2ccc(Cl)cc2Cl)cc1C` [Example 151]: the melting point was 193 to 196 °C.

Compound `N#C/C(=C\c1c(F)c(F)c(F)c(F)c1F)S(=O)(=O)Cc1ccc(F)cc1` [Example 33] registered a melting point of 156 to 158 °C. The compound further had an IC50 with DU145 (prostate cancer) of 2.5 µM.

On to `Cc1ccc(C)c(/C=C(\C(N)=O)S(=O)(=O)Cc2ccc(F)cc2)c1` [Example 160], for which the melting point fell in the range of 172 to 176 °C.

Take `NC(=O)/C(=C\c1ccc(Cl)cc1Cl)S(=O)(=O)Cc1ccccc1Cl` [Example 156]: the melting point was 158 to 164 °C.

What is called melting point is the temperature, or range, at which the solid turns liquid. By IC50 is commonly meant the concentration at which inhibition is half-maximal. The low end stands for greater potency in that assay, the high end for weaker potency in that assay.

(Values after patent US20090191193A1, “Aryl Vinyl Sulfides, Sulfones, Sulfoxides and Sulfonamides, Derivatives Thereof and Therapeutic Uses Thereof” (TEMPLE UNIVERSITY-OF THE COMMONWEALTH SYSTEM OF HIGHER …, priority 2006, published 2009).)
